Experimental data published in article PMC10985113, “Exploring bi-carbazole-linked triazoles as inhibitors of prolyl endo peptidase via integrated in vitro and in silico study” (Scientific Reports, 2024).

Columns and labels:
[1] = system: human fibroblast BJ cell line; assay: Cytotoxicity evaluation (MTT) on BJ cell line; assay type: cell-based; settings: BJ cells; for Cytotoxicity effect / % Inhibition ± SEM (µM): 60 µM; for % Inhibition of cell viability (60 µM) / inhibition at 60 µM / % Inhibition ± SEM (µM): 48 h; for inhibition at 60 µM: Homo sapiens, read-out: % Inhibition ± SEM; for inhibition at 60 µM / % Inhibition ± SEM (µM): mean of three
Procedure: To investigate the cytotoxic effect of these compounds we proceeded all the active compounds 3–9 for their in-vitro study by using BJ cell line. Here we designed our experiment with a specific count of the cells with 6 × 10^4 cells/well were employed into the plate. In each well we added 100 µL followed by 24 h incubation at specific temperature 37 °C in 5% CO2. After that, the 96-well plate was incubated with 50 µL/well (60 µM) of the tested compounds along with 150 µL/well fresh media for 48 h at the similar specific experimental conditions. After 2nd time of incubation, the old media was replaced with 200 µL yellow MTT dye in each well according to 1:10 ratio with the media followed by 4-h incubation. In the next step the dye was removed completely and DMSO (Dimethyl sulfoxide) cell culture grade 100 µL/well was employed into the 96-well plate to dissolve the produced formazan crystals of MTT dye converted into purple. At the end of experiment the obtained changes in the (OD) optical density was monitored at 540 by using spectrophotometer.

prolyl endopeptidase = prolyl endopeptidase (Elizabethkingia meningoseptica, UniProt P27028); assay: In vitro prolyl endopeptidase inhibitory assay (spectrophotometric, Z-Gly-Pro-4-nitroanilide substrate); assay type: biochemical; settings: triplicate, ± SEM; read-out: (IC50 ± µM) in vitro prolyl endo peptidase inhibitory activity
Chain of prolyl endopeptidase (P27028 21-705): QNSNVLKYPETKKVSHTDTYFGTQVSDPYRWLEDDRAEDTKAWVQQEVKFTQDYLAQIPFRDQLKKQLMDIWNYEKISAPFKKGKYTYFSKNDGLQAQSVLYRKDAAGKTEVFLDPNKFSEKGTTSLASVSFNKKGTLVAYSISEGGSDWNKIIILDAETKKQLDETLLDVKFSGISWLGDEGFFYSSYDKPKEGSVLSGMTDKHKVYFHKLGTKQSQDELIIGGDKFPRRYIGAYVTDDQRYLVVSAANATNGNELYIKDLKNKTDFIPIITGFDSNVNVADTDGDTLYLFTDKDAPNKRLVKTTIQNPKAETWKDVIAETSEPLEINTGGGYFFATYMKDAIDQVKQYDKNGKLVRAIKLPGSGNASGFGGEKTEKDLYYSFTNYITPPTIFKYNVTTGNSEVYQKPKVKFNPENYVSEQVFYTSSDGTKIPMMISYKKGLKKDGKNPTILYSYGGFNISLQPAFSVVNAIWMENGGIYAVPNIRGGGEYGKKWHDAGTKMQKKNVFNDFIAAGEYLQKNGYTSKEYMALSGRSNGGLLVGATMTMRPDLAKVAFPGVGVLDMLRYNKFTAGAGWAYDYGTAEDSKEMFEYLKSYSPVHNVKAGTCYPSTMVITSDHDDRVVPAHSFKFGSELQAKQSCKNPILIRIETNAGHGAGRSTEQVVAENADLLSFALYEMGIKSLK
Procedure: Prolyl endopeptidase inhibitory activity was measured using a slightly modified version of Yoshimoto et al. spectrophotometric technique. In a 96-well plate, 140 µL of sodium phosphate buffer (50 mM, pH 7.0), 20 µL of the test substance (0.5 mM in methanol), and 20 µL of prolyl endopeptidase solution (0.02 U/well) were added to provide a total reaction volume of […]. Blank contained 20 µL methanol, instead of the test compound, while Z-prolyl-prolinal (0.5 mM) was used as the positive control. After the reaction mixture had been incubated at 30 °C for 10 min. Now 20 µL of the substrate solution, Z-Gly-Pro-4-nitroanilide (0.4 mM in 1,4-dioxane), was added, and a 96-well plate reader was used to continually monitor the change in absorbance at 410 nm for 30 min (SpectraMax-384, Molecular Devices, CA, USA). The reaction mixture's ultimate methanol and 1,4-dioxane concentrations were 10% v/v. In 96-well microplates, each reaction was carried out in triplicate.
The current study's experiments were all carried out in triplicate, and the data were presented as the standard error of the mean (SEM). Using the statistical software EZ-FIT enzyme kinetics, the IC50 values were determined (Perrella Scientific, Inc., Amherst, NH 03031, USA). […] (1) and (2).1 %Inhibition=100-O.Dtestcompound/O.Dcontrol×100 2 SE=σ/n

prolyl endo peptidase = assay: Kinetic studies (Lineweaver-Burk, Dixon plots) on PEP; assay type: biochemical; settings: for Ki: substrate Z-Gly-Pro-pNA 0.2-0.5 mM
Procedure: Secondary replot of Line weaver-Burk plot between the slopes of each line on-Line weaver-Burk plot versus different concentrations of compounds 7, 8 (B, E). Dixon plot of reciprocal of rate of reaction (velocities) versus different concentrations of compounds 7, 8 (C, F).
In kinetic study PEP (0.02 U/200 L) was incubated with a range of inhibitor different concentrations for 10 min at 30 °C. The substrate was often utilized at doses between 0.2 and 0.5 mM. The substrate solutions (Z-Gly-Pro-pNA) were added at four different concentrations (0.2, 0.3, 0.4, and 0.5 mM), starting with the lowest concentration and working up to the highest concentration, to begin the catalytic reaction. Using a 96-well plate reader, the catalytic activity of PEP was measured at 410 nm (SpectraMax-384, Molecular Devices, CA, USA).

Row | Compound | Cytotoxicity effect [1] | % Inhibition of cell viability (60 µM) ([1]; first replicate column) [%] | % Inhibition of cell viability (60 µM) ([1]; second replicate column) [%] | % Inhibition of cell viability (60 µM) ([1]; third replicate column) [%] | inhibition at 60 µM [1] [%] | % Inhibition ± SEM (µM) [1] [%] | IC50 (prolyl endopeptidase) [µM] | type (pattern) of inhibition (prolyl endo peptidase) | Ki (prolyl endo peptidase) [µM]
1 | C=Cn1c2ccccc2c2ccccc21 [Compound 3] | Non-toxic | 26.34 | 22.74 | 23.95 | 24.4 ± 1.1 | – | – | – | –
2 | C=Cn1c2ccccc2c2cc(-c3ccc4c(c3)c3ccccc3n4C=C)ccc21 [Compound 4] | Non-toxic | 22.75 | 21.55 | 26.34 | 23.6 ± 1.44 | – | – | – | –
3 | O=C(Cn1cc(Cn2c3ccccc3c3cc(-c4ccc5c(c4)c4ccccc4n5Cc4cn(CC(=O)c5ccccc5)nn4)ccc32)nn1)c1ccccc1 [Compound 5] | Non-toxic | 25.14 | 22.74 | 20.35 | 22.8 ± 1.38 | – | – | – | –
4 | Cc1ccc(C(=O)Cn2cc(Cn3c4ccccc4c4cc(-c5ccc6c(c5)c5ccccc5n6Cc5cn(CC(=O)c6ccc(C)cc6)nn5)ccc43)nn2)cc1 [Compound 6] | Non-toxic | 21.55 | 20.35 | 23.95 | 21.9 ± 1.05 | – | – | – | –
5 | O=C(Cn1cc(Cn2c3ccccc3c3cc(-c4ccc5c(c4)c4ccccc4n5Cc4cn(CC(=O)c5ccc(Cl)cc5)nn4)ccc32)nn1)c1ccc(Cl)cc1 [Compound 7] | Non-toxic | 20.35 | 26.34 | 25.14 | – | 23.95 ± 1.83 | 26.3 ± 0.76 | mixed | 24.1 ± 0.0076
6 | O=C(Cn1cc(Cn2c3ccccc3c3cc(-c4ccc5c(c4)c4ccccc4n5Cc4cn(CC(=O)c5ccc(Br)cc5)nn4)ccc32)nn1)c1ccc(Br)cc1 [Compound 8] | Non-toxic | 19.52 | 25.14 | 25.14 | – | 23.27 ± 1.87 | 28.3 ± 0.64 | mixed | 23.67 ± 0.0084
7 | COc1ccc(C(=O)Cn2cc(Cn3c4ccccc4c4cc(-c5ccc6c(c5)c5ccccc5n6Cc5cn(CC(=O)c6ccc(OC)cc6)nn5)ccc43)nn2)cc1 [Compound 9] | Non-toxic | 16.75 | 21.55 | 19.16 | – | 19.16 ± 1.38 | 31.1 ± 0.84 | – | –
8 | Bacitracin [reference compound] | – | – | – | – | – | – | 125 ± 1.5 | – | –
